Measurements as given in PMC5391968, “Comparison of cell-based assays for the identification and evaluation of competitive CXCR4 inhibitors” (PLoS ONE, 2017).
Read-outs that look alike come from different tables or passages of the source. Blank lines part the entries; values can stand above or below the compound they belong to. Where a SMILES comes first, the peptide text is derived from it. Bridges are numbered along the chain shown (N, C = ends). Where no end group is shown, it is not given here. [ ]: non-standard residue; d: D form. 2Nal = N[C@@H](Cc1ccc2ccccc2c1)C(=O)O; Cit = NC(=O)NCCC[C@H](N)C(=O)O

How the values were obtained:
CXCR4 [1] = target: T1, CXCR4 (Homo sapiens, UniProt P61073); test: Calcium mobilization assay (FLIPR Tetra) in U87.CD4.CXCR4 cells; type: cell-based; details: for IC50: 6.25 nM CXCL12, mean ± SEM, read-out: IC50 Calcium signaling (CXCL12-induced); for agonist activity on intracellular calcium flux: in absence of CXCL12
Method: U87.CD4.CXCR4 cells were seeded at 2x10^4 cells per well in gelatin-coated black-walled 96-well plates [0.1% gelatin in DPBS, incubated at RT for two hours and washed once with DPBS] and incubated at 37°C and 5% CO2 overnight. […] Fluo-2 AM loaded cells were washed with assay buffer before being incubated in the FLIPR Tetra system at 37°C for five minutes. At the start of the kinetic measurement, compounds were added to the cell plate by the internal robotic system followed by an incubation period of 10 minutes during which changes in the intracellular calcium level were continuously measured by the FLIPR Tetra. […] Each condition was measured in triplicate and repeated several times as further indicated (see Results).

CXCR4 [2] = target: T1, CXCR4; test: CXCL12^AF647 binding assay on Jurkat cells; details: Jurkat cells, 2.9 nM CXCL12^AF647, mean ± SEM; read-out: IC50 CXCL12-CXCR4 binding interaction
Method: In brief, Jurkat cells were washed twice in assay buffer [Hank’s Balanced Salt Solution (HBSS; Thermo Fisher Scientific), 20 mM HEPES buffer (Thermo Fisher Scientific), 0.2% bovine serum albumin (Sigma-Aldrich), pH 7.4]. […] Afterwards, cells were washed twice in assay buffer and subsequently fixed in 1% paraformaldehyde in Dulbecco’s phosphate buffered saline (DPBS). Samples were analyzed with the FACSArray flow cytometer (Becton Dickinson, NJ, USA). Data were further analyzed with the FlowJo Software (Ashland, Oregon, USA).

CXCR4 [3] = target: T1, CXCR4; test: CXCR4 internalization assay in SUP-T1 cells; type: cell-based; set-up: CXCR4 receptors endogenously expressed on SUP-T1 cells; endogenous in cells; host or cells: SUP-T1 (ATCC); details: for induction of CXCR4 internalization (agonistic effect): in absence of CXCL12, data not shown; for IC50: SUP-T1 cells, 6.25 nM CXCL12, 37°C 30 minutes, mean ± SEM
Method: T-lymphoblastic SUP-T1 cells were washed twice in DPBS containing 2% FBS. Afterwards, cells were first incubated with the PE-labeled rat anti-human CXCR4 mAb (clone 1D9; 2 μg/ml in DPBS/2% FBS; BD Pharmingen) on ice for 45 minutes. […] SUP-T1 cells were subsequently washed once with ice cold DPBS and twice with ice cold assay buffer (see above) before being treated with test compound on ice for 15 minutes. […] Samples were immediately analyzed with the FACSCalibur flow cytometer (Becton Dickinson) whereby the measured fluorescence corresponds to the amount of […] CXCR4 receptors. Data were further analyzed with the FlowJo software.

HIV-1 NL4-3 (X4) [4] = test: microbe, parasite or virus in culture; type: cell-based
Method: The anti-HIV replication assays in MT-4 cells and PHA-stimulated PBMCs have been described previously. The HIV-1 T-tropic molecular clone NL4-3 (X4) was obtained from the National Institute of Allergy and Infectious Disease (NIAID) AIDS reagent program (Bethesda, MD, USA). Briefly, 5x10^4 MT-4 cells (in cell culture medium) were treated with different concentrations of compound at 37°C for 30 minutes. Afterwards, a 50% tissue culture infectious dose of the NL4-3 viral stock was added to the cell-compound mixtures. Four days post infection, the cytopathic effect was evaluated microscopically and cell viability was assessed with the MTS method, as described above.
In the antiviral assays, each condition was tested in duplicate.

[5] = tested on: CXCR4-positive Jurkat cells; test: cells; type: cell-based, human
Method: Jurkat cells were washed twice in assay buffer (see above), dispensed into a 96-well plate (5x10^5 cells per well) containing serial dilutions of compounds (in assay buffer) and incubated at RT in the dark for 10 minutes. […] Suspensions of 1.87x10^4 cells were transferred to the chemotaxis insert plate. […] After removal of the insert plate, migrated cells were centrifuged and resuspended in DPBS containing flow cytometry cell counting beads ([…] Fluorescent Particles; Gentaur, London, UK). Both migrated cells and particles were counted by flow cytometry (FACSCanto II; Becton Dickinson). Each compound concentration was tested in triplicate. Data were analyzed using the FlowJo software and the total number of migrated cells was calculated, according to the counted and total number of beads present in the sample.

HIV-1 NL4-3 (X4) [6] = test: microbe, parasite or virus in culture; type: cell-based; remark: listed apart in the source
Method: PHA-stimulated PBMCs at 5x10^5 cells per sample, pre-incubated with test compounds dissolved in cell culture medium containing IL-2 (2 ng/ml; […] After three days, fresh culture medium with IL-2 was added. Ten days post infection cell supernatant was collected for HIV-1 p24 core antigen enzyme-linked immunosorbent assay (ELISA; Perkin Elmer, Boston, MA, USA) according to the manufacturer’s protocol. In the antiviral assays, each condition was tested in duplicate.

CXCR7 = target: T2, CXCR7 (Homo sapiens, UniProt P25106); test: CXCL12 binding on CXCR7-transfected U87 cells (U87.CD4.CXCR7); details: data not shown
T2 construct: expressed in transfected cells; host or cells: U87.CD4 cells transfected with pTEJ-8 plasmid carrying human CXCR7 cDNA

[7] = MT-4 cells, four days post infection, MTS, mean ± SEM, read-out: IC50 HIV-1 (X4) NL4-3 replication, MT-4 cells
[8] = Jurkat cells, 6.25 nM CXCL12, two hours, mean ± SEM, read-out: IC50 Chemotaxis
[9] = PHA-stimulated PBMCs, ten days post infection, p24 Ag ELISA, mean ± SEM, read-out: IC50 HIV-1 (X4) NL4-3 replication, PHA-stimulated PBMCs
[10] = Human immunodeficiency virus 1, NL43, MT4, 96 h, MT-4 cells, four days post infection, MTS, mean ± SEM, read-out: IC50 HIV-1 (X4) NL4-3 replication, MT-4 cells
[11] = Homo sapiens, Jurkat, 2 h, read-out: IC50 Chemotaxis
[12] = Human immunodeficiency virus 1, NL43, PBMC, 240 h, PHA-stimulated PBMCs, ten days post infection, p24 Ag ELISA, mean ± SEM, read-out: IC50 HIV-1 (X4) NL4-3 replication, PHA-stimulated PBMCs

T1 sequence (P61073 whole entry): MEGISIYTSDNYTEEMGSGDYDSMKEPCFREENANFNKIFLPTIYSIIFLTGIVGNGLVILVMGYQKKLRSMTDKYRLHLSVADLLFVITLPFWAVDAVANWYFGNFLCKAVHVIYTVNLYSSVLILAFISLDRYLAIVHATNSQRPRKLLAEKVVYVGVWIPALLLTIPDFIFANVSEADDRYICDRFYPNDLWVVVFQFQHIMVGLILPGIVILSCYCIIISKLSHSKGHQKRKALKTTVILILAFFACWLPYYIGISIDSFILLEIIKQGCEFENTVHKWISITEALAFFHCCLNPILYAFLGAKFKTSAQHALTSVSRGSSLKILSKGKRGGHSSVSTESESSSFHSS
T2 sequence (P25106 whole entry): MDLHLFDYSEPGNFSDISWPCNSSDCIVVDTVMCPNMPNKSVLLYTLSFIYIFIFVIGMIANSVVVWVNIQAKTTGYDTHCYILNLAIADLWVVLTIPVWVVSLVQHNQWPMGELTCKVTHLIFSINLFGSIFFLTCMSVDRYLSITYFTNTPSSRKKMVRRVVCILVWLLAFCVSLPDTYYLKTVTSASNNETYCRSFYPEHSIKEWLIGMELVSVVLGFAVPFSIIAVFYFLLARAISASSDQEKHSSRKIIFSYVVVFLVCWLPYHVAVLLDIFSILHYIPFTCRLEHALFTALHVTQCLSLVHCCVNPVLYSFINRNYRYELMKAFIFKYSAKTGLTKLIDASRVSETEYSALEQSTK

EC90 (CXCR4 [1]; U87.CD4.CXCR4 cells, CXCL12 alone, read-out: EC90 increase of the calcium concentration): 10.9 nM
Compound: CXCL12: Recombinant human CXCL12, endogenous chemokine ligand of CXCR4

Compound: c1ccc(CNCc2ccc(CN3CCCNCCNCCCNCC3)cc2)nc1 [AMD3465]
IC50 (CXCR4 [1]; U87.CD4.CXCR4 cells): 53.4 ± 24.3 nM | IC50 (CXCR4 [2]): 2.1 ± 0.24 nM | induction of CXCR4 internalization (agonistic effect) (CXCR4 [3]; 50 μM): absence of an agonistic effect | IC50 (CXCR4 [3]): 67.3 ± 11.3 nM | IC50 (HIV-1 NL4-3 (X4) [4]; [7]): 21.8 ± 10.1 nM | IC50 [5, 8]: 116 ± 15.2 nM | IC50 (HIV-1 NL4-3 (X4) [6]; [9]): 27.2 ± 8.7 nM

induction of CXCR4 internalization (agonistic effect) (CXCR4 [3]; 50 μM): absence of an agonistic effect | IC50 (HIV-1 NL4-3 (X4) [4]; [10]): 11.9 ± 4.6 nM | IC50 [5, 11]: 74.9 ± 17.7 nM | IC50 (HIV-1 NL4-3 (X4) [6]; [12]): 26.4 ± 6.1 nM
Compound: NCCCCN(Cc1nc2ccccc2[nH]1)[C@H]1CCCc2cccnc21 [AMD11070]
inhibition of CXCL12 binding on CXCR7 (CXCR7): reduced CXCL12 binding on CXCR7 in the lower micromolar range

induction of CXCR4 internalization (agonistic effect) (CXCR4 [3]; 50 μM): absence of an agonistic effect | IC50 (HIV-1 NL4-3 (X4) [4]; [10]): 11.8 ± 3.4 nM | IC50 [5, 11]: 1430 nM | IC50 (HIV-1 NL4-3 (X4) [6]; [12]): 14.9 ± 3.2 nM
Compound: c1cc(CN2CCCNCCNCCCNCC2)ccc1CN1CCCNCCNCCCNCC1 [AMD3100]

induction of CXCR4 internalization (agonistic effect) (CXCR4 [3]; 50 μM): absence of an agonistic effect | IC50 (HIV-1 NL4-3 (X4) [4]; NL4-3 (X4)): 13.5 ± 7.1 nM | IC50 [5]: 73.7 ± 26 nM | IC50 (HIV-1 NL4-3 (X4) [6]; NL4-3 (X4)): 10.4 ± 4.8 nM
Compound: N=C(N)NCCC[C@H](NC(=O)[C@@H]1CSSC[C@H](NC(=O)[C@H](Cc2ccc3ccccc3c2)NC(=O)[C@H](CCCNC(=N)N)NC(=O)[C@@H](N)CCCNC(=N)N)C(=O)N[C@@H](Cc2ccc(O)cc2)C(=O)N[C@@H](CCCNC(=N)N)C(=O)N[C@@H](CCCCN)C(=O)N[C@H](CCCCN)C(=O)N2CCC[C@H]2C(=O)N[C@@H](Cc2ccc(O)cc2)C(=O)N[C@@H](CCCNC(=N)N)C(=O)N[C@@H](CCCNC(N)=O)C(=O)N1)C(=O)O [T140] (H-RR[2Nal]CYRK[dK]PYR[Cit]CR-OH; disulfide 4-13 (inferred); N-terminus and C-terminus assumed)

IC50 (HIV-1 NL4-3 (X4) [4]; [7]): 14.2 ± 5.3 nM | IC50 [5, 8]: 79.1 ± 9.6 nM | IC50 (HIV-1 NL4-3 (X4) [6]; [9]): 19 ± 2.3 nM
Compound: CC1(C)CN2C(CSC(=NC3CCCCC3)NC3CCCCC3)=CSC2=N1 [IT1t]

Compound: N=C(N)NCCC[C@H](NC(=O)[C@@H]1CSSC[C@H](NC(=O)[C@H](Cc2ccc3ccccc3c2)NC(=O)[C@H](CCCNC(=N)N)NC(=O)[C@@H](N)CCCNC(=N)N)C(=O)N[C@@H](Cc2ccc(O)cc2)C(=O)N[C@@H](CCCNC(N)=O)C(=O)N[C@@H](CCCCN)C(=O)N[C@H](CCCNC(N)=O)C(=O)N2CCC[C@H]2C(=O)N[C@@H](Cc2ccc(O)cc2)C(=O)N[C@@H](CCCNC(=N)N)C(=O)N[C@@H](CCCNC(N)=O)C(=O)N1)C(N)=O [TC14012]
induction of CXCR4 internalization (agonistic effect) (CXCR4 [3]; 50 μM): absence of an agonistic effect | IC50 (HIV-1 NL4-3 (X4) [4]; NL4-3 (X4)): 7.2 ± 2.3 nM | inhibition of migration ([5]; pretreated at concentrations as low as 200 nM): total inhibition of migration | inhibition of CXCL12 binding on CXCR7 (CXCR7): reduced CXCL12 binding on CXCR7 in the lower micromolar range | IC50 (HIV-1 NL4-3 (X4) [6]; NL4-3 (X4)): 9.3 ± 4 nM

Compound: N=C(N)NCCC[C@H](NC(=O)[C@@H]1CSSC[C@H](NC(=O)[C@H](Cc2c[nH]c3ccccc23)NC(=O)[C@H](CCCNC(=N)N)NC(=O)[C@@H](N)CCCNC(=N)N)C(=O)N[C@@H](Cc2ccc(O)cc2)C(=O)N[C@@H](CCCNC(=N)N)C(=O)N[C@@H](CCCCN)C(=O)N[C@H]2CSSC[C@H](NC(=O)[C@H](Cc3ccc(O)cc3)NC(=O)CNC(=O)[C@H](CCCCN)NC(=O)[C@H](Cc3ccc(O)cc3)NC2=O)C(=O)N[C@@H](Cc2ccc(O)cc2)C(=O)N[C@@H](CCCNC(=N)N)C(=O)N[C@@H](CCCCN)C(=O)N1)C(N)=O [T22, (Tyr^5.12,Lys^7)-Polyphemusin II] (H-RRWCYRKCYKGYCYRKCR-NH2; disulfide 4-17, 8-13 (inferred); N-terminus and C-terminus assumed)
induction of CXCR4 internalization (agonistic effect) (CXCR4 [3]; 50 μM): absence of an agonistic effect

Compound: KGVSLSYRKRYSLSVGK-NH2 [CTCE-9908]
agonist activity on intracellular calcium flux (CXCR4 [1]; 20 μM): this activity was lost | agonist activity on intracellular calcium flux (CXCR4 [1]; 100 μM): very weak agonist activity | induction of CXCR4 internalization (agonistic effect) (CXCR4 [3]; 100 μM): absence of an agonistic effect

IC50 (CXCR4 [1]; U87.CD4.CXCR4 cells): > 100000 nM | IC50 (CXCR4 [2]): 51900 nM | induction of CXCR4 internalization (agonistic effect) (CXCR4 [3]; 100 μM): absence of an agonistic effect | IC50 (CXCR4 [3]): > 100000 nM | IC50 (HIV-1 NL4-3 (X4) [4]; [7]): > 100000 nM | IC50 [5, 8]: > 100000 nM | IC50 (HIV-1 NL4-3 (X4) [6]; [9]): > 100000 nM
Compound: CN(C)CCN(CCN(C)C)CCN(C)C [Me6TREN]
